Results reported in PMC12257535, “Distinct Interactions of Cannabinol and Its Cytochrome P450-Generated Metabolites with Receptors and Sensory Neurons” (Journal of Medicinal Chemistry, 2025).

How the values were obtained:
TRP channel = test system: TRP channel; design: method as in ref 11 (De Petrocellis et al., citation mark lost in text); conditions: stimulation by 1 mM carvacrol; ref 11 (De Petrocellis et al.); read-out: IC50, prevention of intracellular calcium increase upon carvacrol; cited from earlier work
IL-6 = IL-6 ELISA in LPS-stimulated BV2 microglial cells; type: cell-based; conditions: LPS-stimulated BV2, 5 μM
Procedure: (§1) The BV2 microglial cells were subjected to the treatment of LPS both in the absence and presence of CBN and its selected metabolites. The seeding density for this assay was 1 × 10^5 cells/well. The cells were initially treated with the molecules for 4 h before being stimulated with LPS (25 ng/mL). The NO assay was performed 24 h after the treatment with LPS. The NO assay was performed according to the manufacturer’s protocol, and NO levels were quantified using nitrate standard curves. For the assay, 50 μL of cell media was used in a 96-well plate, and the absorbance was recorded at 540 nm. All measurements were performed in n = 5.
(§2) ELISA assays of IL-6, IL-10 (Item No. 88–7105), and Arginase 1 were performed using the same supernatant with which we had completed the NO and LDH assays. The culture media was collected, and the IL-6 (Thermo Scientific) and Arginase 1 (abcam) assays were performed using the specific monoclonal antibodies as per the manufacturer’s instructions.

DRG neurons = experiment: Calcium responses of cultured DRG sensory neurons; type: cell-based; conditions: cultured mouse DRG neurons, 50 μM × 15 s
Procedure: 9 CBN and 11-OH CBN activate DRG neurons with similar response magnitudes but differ in their percentage of neurons activated and time to peak response. Calcium response traces of representative cultured mouse DRG neurons following application of CBN (A) and 11-OH CBN (B) 50 μM × 15 s (arrow). […] Mean value ± SEM (CBN: n = 59; 11-OH CBN: n = 29, two-tailed t test, Prism GraphPad).

CYP3A4 [1] = target: T1, CYP3A4 (Homo sapiens, UniProt P08684, S18F); experiment: NADPH oxidation assay with CYP3A4 nanodisc and CPR; conditions: triplicate
IL-10 = IL-10 ELISA in LPS-stimulated BV2 microglial cells; type: cell-based; conditions: LPS-stimulated BV2, 1–5 μM
Procedure: as §1, §2

NO = NO levels in LPS-stimulated BV2 microglial cells; type: cell-based
Procedure: as §1

Arginase 1 = Arginase 1 ELISA in LPS-stimulated BV2 microglial cells; type: cell-based
Procedure: as §1, §2

CB2 receptor = CB2 receptor (Homo sapiens, UniProt P34972); experiment: G protein nanoBRET assay, antagonist mode, CB2 receptor; conditions: 50 μM after pretreatment with 1 μM CP-55940
[2] = In vivo metabolism of CBN in female mice, plasma levels by targeted LC/MS/MS; design: species or system C57BL/6 mice
Procedure: Initially dissolved in ethanol, CBN was combined with a volume of Tween 80, constituting 6% of the total solution volume for injection. Ethanol was eliminated via vacuum evaporation, and saline was added to prepare a 4 mg/mL solution. CBN (20 mg/kg) or vehicle was administered to C57BL/6 mice intravenously (IV) through the retro-orbital sinus or intraperitoneally (IP) at the lower right quadrant of the abdomen. Animals were euthanized at 30- or 120 min postinjection. Blood samples, collected via cardiac puncture into heparin tubes, underwent cold centrifugation at 4500 rpm for 15 min to isolate plasma. Plasma and whole liver samples were flash-frozen at −80 °C for subsequent analysis. Our decision to use female mice for this experiment was based on the availability of age-matched mice in the colony at the time of the experiment.
Mice were anaesthetized with a 3% inhalant dose of isoflurane until their respiratory rate decreased to 50% of baseline (i.e., 40–60 breaths/min) and the righting reflex was abolished. Mice were subsequently removed from the induction chamber and laid on their side. Using the index finger and thumb of the nondominant hand, the skin above and below the eye was retracted until a slight protrusion from the socket was noted. A 29G1/2 needle was inserted, bevel down, into the medial canthus at an approximate 45-degree angle until slight resistance was noted. Volume was slowly infused at a rate of 15uL/second. The needle was subsequently removed from the eye socket, and ophthalmic ointment was added.
Animals were gently restrained by scruff, and the injection site at the lower right quadrant of the abdomen was identified. The needle was inserted at a 60-degree angle to the body, and the plunger was lightly withdrawn to ensure the needle was not in contact with viscera or organs before dispensing volume.
200 μL plasma samples were collected and used for extraction using 1 mL of Hexane: Ethyl acetate (8:2 v/v) following a similar protocol described above.
Samples were analyzed using the Sciex QTrap 6500+ system (Framingham, MA) with Waters Acquity I- class plus UPLC. Software Analyst 1.7.1 was used for data acquisition.
The LC separation was performed on a Waters Acquity UPLC BEH column (2.1 × 100 mm, 1.7 μm) with mobile phase A (0.1% formic acid in water) and mobile phase B (0.1% formic acid in acetonitrile). The flow rate was 0.5 mL/min unless noted otherwise. The linear gradient was as follows: 0–0.5 min, 70%A; 2 min, 20%A; 4–4.2 min, 0%A; 4.21–5.2 min, 0%A (0.8 mL/min); 5.3–6.9 min, 70%A. The autosampler was set at 10 °C, and the column was kept at 50 °C. The injection volume was 5 μL.
Mass spectra were acquired under positive electrospray ionization (ESI) with the ion spray voltage of 4500 V. The source temperature was 500 °C. The curtain gas, ion source gas 1, and ion source gas 2 were 32, 50, and 70 psi, respectively. Multiple reaction monitoring (MRM) was used for quantitation with the MRM transition of CBN (m/z 311.2 → m/z 269.1), CBN-1′–OH (m/z 327.2 → m/z 253.1), CBN-11-OH (m/z 327.2 → m/z 128.1), CBN-p-quinone (m/z 325.2 → m/z 283.1) and EPEA-d4 as internal standard (m/z 350.3 → m/z 66.1).

CB1 receptor = CB1 receptor (Homo sapiens, UniProt P21554); experiment: G protein nanoBRET assay, antagonist mode, CB1 receptor; conditions: 50 μM after pretreatment with 1 μM CP-55940
CYP3A4 [3] = target: T1, CYP3A4; experiment: CYP3A4-mediated CBN metabolism; type: in vitro ADME; design: polyhistidine (C); made in house; host or cells: E. coli DH5alpha; conditions: targeted and untargeted metabolomics
CB1 receptors = target: CB1 receptors; design: method as in ref 10 (Rhee et al., citation mark lost in text); conditions: COS-7 cell lines; ref 10 (Rhee et al.); cited from earlier work
TRPV4 = test system: TRPV4; design: method as in ref 11 (De Petrocellis et al., citation mark lost in text); conditions: ref 11 (De Petrocellis et al.); cited from earlier work
CB2 receptors = target: CB2 receptors; design: method as in ref 10 (Rhee et al., citation mark lost in text); conditions: COS-7 cell lines; ref 10 (Rhee et al.); cited from earlier work

T1 sequence (P08684 with tags, fused parts or gaps S18F limits assumed): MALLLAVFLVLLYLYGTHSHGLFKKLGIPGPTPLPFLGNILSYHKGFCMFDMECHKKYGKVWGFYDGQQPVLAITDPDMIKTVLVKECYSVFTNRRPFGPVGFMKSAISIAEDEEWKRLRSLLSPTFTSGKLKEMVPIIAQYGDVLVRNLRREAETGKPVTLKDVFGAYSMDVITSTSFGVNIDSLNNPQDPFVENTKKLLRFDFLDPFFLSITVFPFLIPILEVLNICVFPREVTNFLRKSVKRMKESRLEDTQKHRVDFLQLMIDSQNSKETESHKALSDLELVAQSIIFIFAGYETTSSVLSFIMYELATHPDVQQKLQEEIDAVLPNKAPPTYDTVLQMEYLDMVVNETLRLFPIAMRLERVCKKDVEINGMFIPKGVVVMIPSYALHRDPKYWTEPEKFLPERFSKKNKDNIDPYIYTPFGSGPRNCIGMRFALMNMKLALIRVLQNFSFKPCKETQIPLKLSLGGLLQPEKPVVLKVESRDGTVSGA
Sequence of CB1 receptor (P21554 whole entry): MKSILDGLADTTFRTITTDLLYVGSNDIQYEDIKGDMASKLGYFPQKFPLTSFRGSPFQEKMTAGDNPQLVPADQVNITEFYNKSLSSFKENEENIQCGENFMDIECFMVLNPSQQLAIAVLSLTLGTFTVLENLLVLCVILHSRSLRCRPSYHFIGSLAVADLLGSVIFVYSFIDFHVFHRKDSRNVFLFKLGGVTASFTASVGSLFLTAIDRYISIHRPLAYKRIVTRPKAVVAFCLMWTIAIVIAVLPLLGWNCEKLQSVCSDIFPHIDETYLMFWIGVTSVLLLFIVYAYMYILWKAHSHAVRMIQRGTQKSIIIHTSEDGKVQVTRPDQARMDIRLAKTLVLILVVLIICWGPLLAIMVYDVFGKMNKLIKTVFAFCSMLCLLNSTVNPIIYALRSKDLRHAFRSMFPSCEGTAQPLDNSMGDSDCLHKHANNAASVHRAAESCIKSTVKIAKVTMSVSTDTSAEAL
Sequence of CB2 receptor (P34972 whole entry): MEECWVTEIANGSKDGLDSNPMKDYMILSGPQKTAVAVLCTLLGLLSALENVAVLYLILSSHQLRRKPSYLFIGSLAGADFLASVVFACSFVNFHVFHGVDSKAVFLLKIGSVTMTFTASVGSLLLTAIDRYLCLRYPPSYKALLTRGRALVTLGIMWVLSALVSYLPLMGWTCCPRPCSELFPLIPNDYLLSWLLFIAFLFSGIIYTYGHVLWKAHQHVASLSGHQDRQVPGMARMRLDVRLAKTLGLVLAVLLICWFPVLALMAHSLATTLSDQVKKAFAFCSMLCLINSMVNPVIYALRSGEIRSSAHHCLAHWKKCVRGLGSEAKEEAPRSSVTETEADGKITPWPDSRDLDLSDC

CCCCCc1cc(O)c2c(c1)OC(C)(C)c1ccc(C)cc1-2 [CBN, Cannabinol]
IC50 (TRP channel): 9400 ± 100 nM
IL-6 levels (IL-6): reduction in IL-6 levels
Ca2+ response (%) (DRG neurons): 38.9 ± 4.3%
DRG neuron activation (%) (DRG neurons): 29.3 ± 4.9%
Response Time (DRG neurons): 40.7 ± 4.8 s
percentage of DRG neurons activated (DRG neurons): 29.3 ± 4.9%
time to peak response (DRG neurons): 40.7 ± 4.8 s
rate of NADPH oxidation in the presence of the compound (CYP3A4 [1]): 249.731±14625 nmol/min/nmol
IL-10 levels (IL-10): concentration-dependent increase in IL-10 levels
production of NO (NO; LPS-stimulated BV2, 5 μM): slightly lower production of NO
change in NO levels compared to cells with only LPS treatment (NO; LPS-stimulated BV2, 1, 2.5 and 5 μM): no detectable significant (ns) change
Arginase1 levels (Arginase 1): slight increase in Arginase1 levels
inhibition of CB2 receptor (CB2 receptor): partial inhibition
reduction of plasma level between 0.5 and 2 h ([2]; IP administration of CBN): 3 fold
reduction of plasma level between 0.5 and 2 h ([2]; IV administration of CBN): ~3 fold
amount of CBN available in plasma, intravenous relative to intraperitoneal ([2]; female mice, CBN 20 mg/kg, plasma): 3.0 times
inhibition of CB1 activation (CB1 receptor): significant but partial inhibition
metabolism of CBN by CYP3A4 (CYP3A4 [3]): did not metabolize
Ki (CB1 receptors): 211 ± 35 nM
efficacy in activating TRPV4 compared to ionomycin (TRPV4): 15.3–26.1%
Ki (CB2 receptors): 126 ± 26 nM
